Experiments:
MCAO rats [1] = assay: Neurobehavioral scoring (Longa) in rat MCAO models; format: in vivo, Sprague-Dawley (SD) rat; settings: for Neurobehavioral score (Longa Scoring, 0-4): n=8, glibenclamide 10 μg/kg ip at ischemia 4 h + 200 ng/h sc for 44 hours
Method: (§1) 7.2 Experiment Animals: Male Sprague-Dawley (SD) rat, clean grade, weighing at 200˜230 g. The temperature of animal feeding room was maintained at 20˜24° C., the humidity was maintained at 30˜70%; a cycle of lighting on 12 hours/lighting off 12 hours (06:00 AM on, 18:00 PM off) every day was employed. During the experiment, the animals were feed separately, and had free access to water and food.
The test drugs in group GB was formulated as follows: glibenclamide was dissolved in a little DMSO (dimethyl sulfoxide), the resulting solution was diluted to a DMSO concentration of 5 vol % with physiological saline, and the pH of the solution was adjusted to 8˜8.5 with NaOH. By means of the above process, solutions with glibenclamide concentration of 200 μg/ml and 10 μg/ml were respectively formulated.
The test drugs in group H-GB was formulated as follows: Taking the lyophilized product of Example 13, into which was added an appropriate amount of physiological saline and respectively formulated into a solution with a glibenclamide concentration of […].
Rats were rested for about 1 week before the experiment started. On the day of the experiment, the surgical tools were sterilized by autoclaving. The rats were anesthetized by intraperitoneally injecting chloral hydrate (330 mg/kg). The common carotid artery and external carotid artery of the rats were separated, and a sterilized MCAO monofilament was used to insert into the internal carotid artery through the opening of the external carotid artery to a depth of about 18 mm, until the head of the monofilament reached the starting part of the middle cerebral artery, the opening of the external carotid artery was ligatured to fix the monofilament. […] The blood flow in the brain was monitored with a laser Doppler (Model moorVMS-LDF2, Manufacturer moor) respectively pre-operation, post-operation and immediately after reperfusion, and the molding in which the ratio of the postoperative blood flow to the preoperative blood flow was less than 30% was regarded as a qualified molding. […]

MCAO rats [2] = assay: Area and swelling degree of cerebral infarction in rat MCAO models; format: in vivo, Sprague-Dawley (SD) rat; settings: n=8, glibenclamide 10 μg/kg ip at ischemia 4 h + 200 ng/h sc for 44 hours, after ischemia for 48 hours
Method: as §1
The test drugs in group GB was formulated as follows: glibenclamide was dissolved in a little DMSO (dimethyl sulfoxide), the resulting solution was diluted to a DMSO concentration of 5 vol % with physiological saline, and the pH of the solution was adjusted to 8˜8.5 with NaOH. […]
Rats were rested for about 1 week before the experiment started. […] The blood flow in the brain was monitored with a laser Doppler (Model moorVMS-LDF2, Manufacturer moor) respectively pre-operation, post-operation and immediately after reperfusion, and the molding in which the ratio of the postoperative blood flow to the preoperative blood flow was less than 30% was regarded as a qualified molding. […]
After ischemia for 48 hours, the brain was taken and put into a brain slicer to slice coronal sections through the brain (2 mm each piece), stained at dark with 1% TTC for 15 min at 37° C., and analyzed for the area of infarction after taking a photograph. […]

[3] = background statement; cited from earlier work

COc1ccc(Cl)cc1C(=O)NCCc1ccc(S(=O)(=O)NC(=O)NC2CCCCC2)cc1 [glibenclamide, 5-chloro-N-(4-[N-(cyclohexylcarbamoyl)aminosulfonyl]phenethyl)-2-methoxybenzamide]
neurobehavioral scores compared with the control (in words) (MCAO rats [1]; at 24 h, 48 h): declines | Neurobehavioral score (Longa Scoring, 0-4) (MCAO rats [1]; scored at ischemia 24 h): 1.75 ± 0.25 | Neurobehavioral score (Longa Scoring, 0-4) (MCAO rats [1]; scored at ischemia 48 h): 2.00 ± 0.19 | Swelling degree (area of infarction side hemisphere / non-infarction side hemisphere) (MCAO rats [2]): 1.31 ± 0.04 | water solubility [3]: less than 5 μg/ml

— US10966993B2, “Pharmaceutical composition comprising a sulfonylurea drug and preparation method thereof” (JIANGSU AOSAIKANG PHARMACEUTICAL CO., LTD., priority 2016, dated 2021)
